The pEC50 is −log10 of the EC50, conventionally taken in molar units.

This assay deals with NHACs. The assay can be described thus: calcium flux assay. It is filed as cell-based, human. To be noted: Homo sapiens; for Emax: read-out: (A) % Efficacy. Here is the method:
NHACs were plated in 1536 Greiner plate at 2000 cells/well in 4 ul volume. 24 hours later, 4 ul of Calcium 5 dye solution (Hank's Balanced Salt/HEPES buffer containing 5 mM of Probenecid) was then added and incubated for 1 hour at room temperature. Fluorescence readings at excitation wavelength of 470-495 nm and emission wavelength of 515-575 nm were done using FLIPR high-throughput screening system (Molecular Devices, Sunnyvale, CA). The test compound was then added to each well at the indicated dose. Signal was measured prior compound dispense and after using a first interval of 1 second for 60 reads and second interval of 3 second for 20 reads. Data was analyzed using Molecular Devices ScreenWorks® Software.
For orientation: Calcium flux is commonly read through the fluorescence of an indicator in the cells.

Each structure is given as a SMILES string. pEC50: −log10 of the molar value.

On to `CO[C@H]1C[C@H]2O[C@@H]1[C@H](c1ccnc(C)c1)[C@@H]2C(=O)Nc1ccc(Cl)c(Cl)c1` [Example 63, (1R,2S,3S,4R,5S)—N-(3,4-dichlorophenyl)-5-methoxy-3-(2-methylpyridin-4-yl)-7-oxabicyclo[2.2.1]heptane-2-carboxamide], for which the pEC50 is below 4.30 and the Emax worked out at 9%.

On to `Nc1cc([C@H]2[C@H]3O[C@H](C[C@@H]3O)[C@H]2C(=O)Nc2ccc(Cl)c(Cl)c2)ccn1` [Example 57, (1R,2S,3S,4R,5S)-3-(2-aminopyridin-4-yl)-N-(3,4-dichlorophenyl)-5-hydroxy-7-oxabicyclo[2.2.1]heptane-2-carboxamide], for which the pEC50 is below 4.30 and the Emax amounted to 56%.

As to `Cc1cc([C@H]2[C@H]3O[C@H]([C@@H]4C[C@@H]43)[C@H]2C(=O)Nc2cccc(C(F)(F)F)c2)ccn1` [Example 26, (1S,2S,4R,5R,6S,7S)-7-(2-methylpyridin-4-yl)-N-[3-(trifluoromethyl)phenyl]-8-oxatricyclo[3.2.1.0^2,4]octane-6-carboxamide], the pEC50 is 4.64 and the Emax was 54%.

Consider `Cc1ccc([C@H]2[C@H]3O[C@H](C[C@H]3F)[C@@H]2C(=O)Nc2ccc(Cl)c(Cl)c2)cn1` [Example 164, (1R,2R,3S,4R,5R)—N-(3,4-dichlorophenyl)-5-fluoro-3-(6-methylpyridin-3-yl)-7-oxabicyclo[2.2.1]heptane-2-carboxamide], for which the pEC50 is below 4.30 and the Emax worked out at 0%.

For `COc1ccc(NC(=O)[C@@H]2[C@@H]3O[C@@H]([C@H]4C[C@H]43)[C@@H]2c2ccc(C)nc2)cn1` (racemic) [Example 2, rac-(1S,2S,4R,5R,6S,7S)—N-(6-methoxypyridin-3-yl)-7-(6-methylpyridin-3-yl)-8-oxatricyclo[3.2.1.0^2,4]octane-6-carboxamide], the pEC50 is 6.52 and the Emax turned out to be 45%.

As for `Cc1cc([C@@H]2[C@@H]3O[C@@H]([C@H]4C[C@H]43)[C@@H]2C(=O)Nc2cnc(Cl)c(Cl)c2)ccn1` (single isomer, unassigned) [Example 46], the pEC50 was below 4.30 and the Emax was determined as 0%.

For `Nc1ncc([C@H]2[C@H]3O[C@H](C[C@@H]3O)[C@@H]2C(=O)Nc2ccc(Cl)c(Cl)c2)cn1` [Example 143, (1R,2R,3S,4R,5S)-3-(2-aminopyrimidin-5-yl)-N-(3,4-dichlorophenyl)-5-hydroxy-7-oxabicyclo[2.2.1]heptane-2-carboxamide], the pEC50 is below 4.30 and the Emax is 0%.

Turning to `O=C(Nc1ccc(Cl)c(Cl)c1)[C@@H]1[C@@H](c2cccc(C(F)(F)F)n2)[C@H]2O[C@@H]1C[C@@H]2O` [Example 140, (1R,2R,3S,4R,5S)—N-(3,4-dichlorophenyl)-5-hydroxy-3-(6-(trifluoromethyl)pyridin-2-yl)-7-oxabicyclo[2.2.1]heptane-2-carboxamide], the negative-log EC50 (pEC50) is 4.82 and the Emax was 292%.

Turning to `O=C(Nc1cnc(Cl)c(Cl)c1)[C@@H]1[C@@H](c2ccnc(F)c2F)[C@H]2O[C@@H]1C[C@@H]2O` [Example 91, (1R,2R,3S,4R,5S)—N-(5,6-dichloropyridin-3-yl)-3-(2,3-difluoropyridin-4-yl)-5-hydroxy-7-oxabicyclo[2.2.1]heptane-2-carboxamide], the pEC50 was 5.36 and the Emax was 66%.

For the molecule `COc1ccc(NC(=O)[C@H]2[C@H]3O[C@H]([C@@H]4C[C@@H]43)[C@H]2c2ccc(C)nc2)cn1` [Example 3, (1R,2R,4S,5S,6R,7R)-N-(6-methoxypyridin-3-yl)-7-(6-methylpyridin-3-yl)-8-oxatricyclo[3.2.1.0^2,4]octane-6-carboxamide], the pEC50 is below 4.30 and the Emax is 0%.

`O=C(Nc1cccc(C(F)(F)F)c1)[C@H]1[C@@H]2O[C@@H]([C@H]3C[C@H]32)[C@@H]1c1ccnc(F)c1` [Example 134, (1S,2S,4R,5R,6R,7S)-7-(2-fluoropyridin-4-yl)-N-(3-(trifluoromethyl)phenyl)-8-oxatricyclo[3.2.1.0^2,4]octane-6-carboxamide]: the pEC50 was 4.72 and the Emax is 249%.

For the molecule `COc1ccc(NC(=O)[C@H]2[C@@H](c3ccnc(C)c3)[C@H]3O[C@@H]2C[C@H]3F)cn1` [Example 14, (1R,2S,3S,4R,5R)-5-fluoro-N-(6-methoxypyridin-3-yl)-3-(2-methylpyridin-4-yl)-7-oxabicyclo[2.2.1]heptane-2-carboxamide], the pEC50 was 5.08 and the Emax amounted to 115%.

Regarding `O=C(Nc1ccc(Cl)c(Cl)c1)[C@H]1[C@@H](c2cccc(C(F)(F)F)n2)[C@H]2O[C@@H]1C[C@@H]2O` [Example 50, (1R,2S,3S,4R,5S)—N-(3,4-dichlorophenyl)-5-hydroxy-3-(6-(trifluoromethyl)pyridin-2-yl)-7-oxabicyclo[2.2.1]heptane-2-carboxamide], the pEC50 was 4.68 and the Emax was 308%.

Consider `O=C(Nc1cccc(C(F)(F)F)c1)[C@@H]1[C@@H]2O[C@@H]([C@H]3C[C@H]32)[C@@H]1c1ccnc(F)c1` [Example 41, (1S,2S,4R,5R,6S,7S)-7-(2-fluoropyridin-4-yl)-N-(3-(trifluoromethyl)phenyl)-8-oxatricyclo[3.2.1.0^2,4]octane-6-carboxamide], for which the pEC50 was 4.62 and the Emax was 121%.

For `Cc1cc([C@H]2[C@H]3O[C@H]([C@@H]4C[C@@H]43)[C@H]2C(=O)Nc2cnc(Cl)c(Cl)c2)ccn1` (single isomer, unassigned) [Example 45], the pEC50 is 4.85 and the Emax came out at 32%.

With `Cc1cc([C@H]2[C@H]3O[C@H](C[C@@H]3O)[C@@H]2C(=O)Nc2ccc(Cl)c(Cl)c2)ccn1` (racemic) [Example 77, rac-(1R,2R,3S,4R,5S)—N-(3,4-dichlorophenyl)-5-hydroxy-3-(2-methylpyridin-4-yl)-7-oxabicyclo[2.2.1]heptane-2-carboxamide], the pEC50 was 4.59 and the Emax turned out to be 49%.

Turning to `O=C(Nc1cccc(C(F)(F)F)c1)[C@H]1[C@@H]2O[C@@H]([C@H]3C[C@H]32)[C@@H]1c1cncnc1` [Example 130, (1S,2S,4R,5R,6R,7S)-7-(pyrimidin-5-yl)-N-(3-(trifluoromethyl)phenyl)-8-oxatricyclo[3.2.1.0^2,4]octane-6-carboxamide], the pEC50 was 5.00 and the Emax was 237%.

For the molecule `O=C(Nc1cccc(C(F)(F)F)c1)[C@@H]1[C@@H]2O[C@@H]([C@H]3C[C@H]32)[C@@H]1c1ccncc1` [Example 38, (1S,2S,4R,5R,6S,7S)-7-(pyridin-4-yl)-N-(3-(trifluoromethyl)phenyl)-8-oxatricyclo[3.2.1.0^2,4]octane-6-carboxamide], the pEC50 is 5.00 and the Emax amounted to 36%.

For `CN(C)c1ncc([C@H]2[C@H]3O[C@H](C[C@@H]3O)[C@@H]2C(=O)Nc2ccc(Cl)c(Cl)c2)cn1` [Example 144, (1R,2R,3S,4R,5S)—N-(3,4-dichlorophenyl)-3-(2-(dimethylamino)pyrimidin-5-yl)-5-hydroxy-7-oxabicyclo[2.2.1]heptane-2-carboxamide], the pEC50 is 4.52 and the Emax worked out at 183%.

The values are drawn from patent US12209096B2, “Compounds and compositions for inducing chondrogenesis” (NOVARTIS AG, priority 2017, dated 2025).
